In brackets after ≈: the same amount, converted by molar mass. Activity calls are given as the source filed them. The rule behind the calls is not given here. Numbered stars: 1 amine (or outer) side, 2 acyl side, 3 side chain; on linkers, the order of the positions; unused ones are H or OH. Square brackets hold non-standard residues; d marks the D form. Peptide text beside a SMILES is read from it. * marks the point of attachment. X3 = CC(C)C[C@@H](CN(CC(N)=O)S(=O)(=O)c1ccc(C(F)(F)F)cc1)N*; X2 = CC(C)C[C@H](N)CN(CC(=O)[*:2])[*:1]; X1 = O=S(=O)(c1ccc(C(F)(F)F)cc1)*
Assays:
[1] = test system: Staphylococcus aureus; assay: Antibiofilm activity against methicillin-resistant Staphylococcus aureus ATCC 33591 assessed as biofilm thickness at 8 microg/ml incubated for 24 hrs by confocal laser scanning microscopic analysis; assay type: functional; settings: dose 8 µg/ml
[2] = test system: Staphylococcus aureus; assay: Antibacterial activity against drug-susceptible Staphylococcus aureus ATCC 33591 assessed as reduction in microbial growth; assay type: functional
[3] = test system: Pseudomonas aeruginosa; assay: Antimicrobial activity against multidrug-resistant Pseudomonas aeruginosa 119 assessed as inhibition of visible bacterial growth incubated for 18 hrs by broth-dilution method; assay type: functional
[4] = test system: Staphylococcus aureus; assay: Antimicrobial activity against methicillin-resistant Staphylococcus aureus 6 assessed as inhibition of visible bacterial growth incubated for 18 hrs by broth-dilution method; assay type: functional
[5] = test system: Pseudomonas aeruginosa; assay: Antimicrobial activity against multidrug-resistant Pseudomonas aeruginosa 061 assessed as inhibition of visible bacterial growth incubated for 18 hrs by broth-dilution method; assay type: functional
[6] = test system: Staphylococcus epidermidis; assay: Antibiofilm activity against Staphylococcus epidermidis ATCC 12228 assessed as inhibition of biofilm formation at 4 to 8 microg/ml incubated for 24 hrs by crystal violet staining based analysis; assay type: functional; settings: dose 4-8 µg/ml, at 4 to 8 µg/mL
[7] = test system: Pseudomonas aeruginosa; assay: Antimicrobial activity against multidrug-resistant Pseudomonas aeruginosa 050 assessed as inhibition of visible bacterial growth incubated for 18 hrs by broth-dilution method; assay type: functional
[8] = test system: Pseudomonas aeruginosa; assay: Antibiofilm activity against Pseudomonas aeruginosa ATCC 27853 assessed as biofilm thickness at 2 times MIC90 incubated for 24 hrs by confocal laser scanning microscopic analysis; assay type: functional
[9] = test system: Staphylococcus aureus; assay: Antibiofilm activity against Staphylococcus aureus ATCC 25923 assessed as inhibition of biofilm formation at 4 to 8 microg/ml incubated for 24 hrs by crystal violet staining based analysis; assay type: functional; settings: dose 4-8 µg/ml, at 4 to 8 µg/mL
[10] = test system: Staphylococcus aureus; assay: Bactericidal activity against Staphylococcus aureus ATCC 33591 at 2 to 4 times MIC; assay type: functional, organism-based
[11] = test system: Pseudomonas aeruginosa; assay: Antimicrobial activity against multidrug-resistant Pseudomonas aeruginosa 125 assessed as inhibition of visible bacterial growth incubated for 18 hrs by broth-dilution method; assay type: functional
[12] = test system: Staphylococcus aureus; assay: Synergistic antibacterial activity against methicillin-resistant Staphylococcus aureus S5 assessed as fractional inhibitory concentration index in presence of polymyxin B by checkerboard assay; assay type: functional
[13] = test system: Erythrocyte; assay: Hemolytic activity against mouse Red blood cell incubated for 1 hr; assay type: toxicity, cell-based
[14] = test system: Staphylococcus aureus; assay: Antibiofilm activity against methicillin-resistant Staphylococcus aureus ATCC 33591 assessed as inhibition of biofilm formation at 4 to 8 microg/ml incubated for 24 hrs by crystal violet staining based analysis; assay type: functional; settings: dose 4-8 µg/ml, at 4 to 8 µg/mL
[15] = test system: Pseudomonas aeruginosa; assay: Bactericidal activity against Pseudomonas aeruginosa ATCC 27853 at 2 to 4 times MIC; assay type: functional, organism-based
[16] = test system: Staphylococcus aureus; assay: Antimicrobial activity against methicillin-resistant Staphylococcus aureus 3 assessed as inhibition of visible bacterial growth incubated for 18 hrs by broth-dilution method; assay type: functional
[17] = test system: Staphylococcus aureus; assay: Antimicrobial activity against methicillin-resistant Staphylococcus aureus 1 assessed as inhibition of visible bacterial growth incubated for 18 hrs by broth-dilution method; assay type: functional
[18] = test system: Bacillus subtilis; assay: Antimicrobial activity against Bacillus subtilis ATCC 23857 assessed as inhibition of visible bacterial growth incubated for 18 hrs by broth-dilution method; assay type: functional
[19] = test system: Pseudomonas aeruginosa; assay: Antimicrobial activity against Pseudomonas aeruginosa ATCC 27853 assessed as fold increase in MIC in presence of human serum; assay type: functional
[20] = test system: Pseudomonas aeruginosa; assay: Antibiofilm activity against Pseudomonas aeruginosa ATCC 27853 assessed as biofilm thickness at 1 times MIC90 incubated for 24 hrs by confocal laser scanning microscopic analysis; assay type: functional
[21] = test system: Staphylococcus aureus; assay: Antibiofilm activity against methicillin-resistant Staphylococcus aureus ATCC 33591 assessed as biofilm eradication at 4 times MIC incubated for 2 hrs by crystal violet staining based assay; assay type: functional, organism-based
[22] = Stability in human serum assessed as half life measured for 5 hrs by RP-HPLC analysis; assay type: ADME, cell-free
[23] = Toxicity in mouse assessed as spleen lesion at 20 mg/kg, ip measured for 30 to 60 mins by H and E staining based analysis; assay type: organism-based; settings: in vivo, time 30-60 min
[24] = Toxicity in mouse assessed as heart lesion at 20 mg/kg, ip measured for 30 to 60 mins by H and E staining based analysis; assay type: organism-based; settings: in vivo, time 30-60 min
[25] = test system: Staphylococcus aureus; assay: Antibacterial activity against methicillin-resistant Staphylococcus aureus ATCC 33591 infected in full-thickness wound BALB/c mouse model assessed as reduction in IL-6 level in skin at 0.25 to 1 mg/kg, ip administered for 1 to 48 hrs and measured after 3 days; assay type: functional, organism-based; settings: dose 0.25-1 mg/kg, time 1-120 hrs
[26] = test system: Cell membrane; assay: Induction of membrane disruption in Pseudomonas aeruginosa ATCC 27853 assessed as membrane blebbing at 2 to 4 times MIC incubated for 24 hrs by SEM analysis; assay type: cell membranes
[27] = test system: Pseudomonas aeruginosa; assay: Bactericidal activity against Pseudomonas aeruginosa ATCC 27853 assessed as reduction in viable bacteria at 4 times MIC measured for 1 min by time-kill assay; assay type: functional, organism-based
[28] = test system: Staphylococcus aureus; assay: Antibacterial activity against methicillin-resistant Staphylococcus aureus ATCC 33591 infected in full-thickness wound BALB/c mouse model assessed as wound healing at 0.25 to 1 mg/kg, ip administered for 1 to 48 hrs and measured after 10 days; assay type: functional, organism-based; settings: dose 0.25-1 mg/kg, time 1-288 hrs
[29] = Toxicity in mouse assessed as lung lesion at 20 mg/kg, ip measured for 30 to 60 mins by H and E staining based analysis; assay type: organism-based; settings: in vivo, time 30-60 min
[30] = test system: Cell membrane; assay: Induction of membrane disruption in Staphylococcus aureus ATCC 33591 assessed as membrane shrinkage at 2 to 4 times MIC incubated for 24 hrs by SEM analysis; assay type: cell membranes
[31] = test system: Pseudomonas aeruginosa; assay: Antibacterial activity against Pseudomonas aeruginosa ATCC 27853 infected in C57BL/6 mouse pneumonia model assessed as log reduction in bacterial load in lung at 5 mg/kg, ip administered for 1 to 48 hrs and measured after 3 days; assay type: functional; settings: time 1-120 hrs
[32] = test system: Cell membrane; assay: Induction of membrane depolarization in Pseudomonas aeruginosa ATCC 27853 assessed as increase in fluorescence intensity by DiSC35 dye-based fluorescence assay; assay type: cell membranes
[33] = test system: Pseudomonas aeruginosa; assay: Additive antibacterial activity against multidrug-resistant Pseudomonas aeruginosa 124 assessed as fractional inhibitory concentration index in presence of polymyxin B by checkerboard assay; assay type: functional
[34] = Toxicity in mouse assessed as kidney lesion at 20 mg/kg, ip measured for 30 to 60 mins by H and E staining based analysis; assay type: organism-based; settings: in vivo, time 30-60 min
[35] = test system: Cell membrane; assay: Induction of membrane disruption in Staphylococcus aureus ATCC 33591 assessed as membrane blebbing at 2 to 4 times MIC incubated for 24 hrs by SEM analysis; assay type: cell membranes
[36] = Toxicity in mouse assessed as liver lesion at 20 mg/kg, ip measured for 30 to 60 mins by H and E staining based analysis; assay type: organism-based; settings: in vivo, time 30-60 min
[37] = test system: Pseudomonas aeruginosa; assay: Antibacterial activity against Pseudomonas aeruginosa ATCC 27853 infected in C57BL/6 mouse pneumonia model assessed as decrease in IL-6 level in lung at 2.5 to 10 mg/kg, ip administered for 1 to 48 hrs and measured after 3 days; assay type: functional, organism-based; settings: dose 2.5-10 mg/kg, time 1-120 hrs
[38] = Toxicity in mouse assessed as animal survival at 20 mg/kg, ip measured for 7 days; assay type: organism-based; settings: in vivo, 168 h, time 7 day
[39] = test system: Cell membrane; assay: Induction of membrane depolarization in methicillin-resistant Staphylococcus aureus ATCC 33591 assessed as increase in fluorescence intensity by DiSC35 dye-based fluorescence assay; assay type: cell membranes

## CC(C)C[C@@H](CN(CC(N)=O)S(=O)(=O)c1ccc(C(F)(F)F)cc1)NC(=O)[C@H](CCCCN)NC(=O)[C@H](CCCCN)NC(=O)[C@H](CC(C)C)NC(=O)[C@H](CC(C)C)NC(=O)[C@H](CCCCN)NC(=O)[C@H](CC(C)C)NC(=O)[C@@H](N)Cc1ccccc1 (H-FLKLLKK-X3)
[1]
  Activity: 20 um
[2]
  MIC: 4 µg/mL
[3]
  MIC: 8 µg/mL (≈ 6.39 µM)
[4]
  MIC: 4 µg/mL (≈ 3.19 µM)
[5]
  MIC: 8 µg/mL (≈ 6.39 µM)
[6]
  inhibition (INH): 50%
[7]
  MIC: 16 µg/mL (≈ 12.8 µM)
[8]
  Activity: 20 um
[9]
  inhibition (INH): 50%
[10]
  Activity: Active
[11]
  MIC: 16 µg/mL (≈ 12.8 µM)
[12]
  fractional inhibitory concentration index (FICI): 0.75
[13]
  MHC: 256 µg/mL
[14]
  inhibition (INH): 50%
[15]
  Activity: Active
[16]
  MIC: 4 µg/mL (≈ 3.19 µM)
[17]
  MIC: 8 µg/mL (≈ 6.39 µM)
[18]
  MIC: 4 µg/mL (≈ 3.19 µM)
[19]
  fold change (FC): 2
[20]
  Activity: 40 um
[21]
  Activity: Active
[22]
  half-life: 2.96 h

## CC(C)C[C@H](N)CN(CC(=O)N[C@@H](CCCCN)C(=O)N[C@@H](CC(C)C)C(=O)N[C@@H](CC(C)C)C(=O)N[C@@H](CCCCN)C(=O)N[C@@H](CCCCN)C(=O)N[C@@H](CC(C)C)C(=O)N[C@@H](CC(C)C)C(N)=O)S(=O)(=O)c1ccc(C(F)(F)F)cc1 (X1-[X2]KLLKKLL-NH2)
[1]
  Activity: 20 um
[2]
  MIC: 4 µg/mL
[23]
  Activity: Non-Toxic
[24]
  Activity: Non-Toxic
[3]
  MIC: 8 µg/mL (≈ 6.56 µM)
[4]
  MIC: 4 µg/mL (≈ 3.28 µM)
[25]
  Activity: Active
[26]
  Activity: Active
[27]
  Activity: Active
[5]
  MIC: 8 µg/mL (≈ 6.56 µM)
[6]
  inhibition (INH): 50%
[7]
  MIC: 4 µg/mL (≈ 3.28 µM)
[28]
  Activity: Active
[29]
  Activity: Non-Toxic
[30]
  Activity: Active
[31]
  log(activity): 4.51
[32]
  Activity: Dose-Dependent Effect
[8]
  Activity: 20 um
[9]
  inhibition (INH): 50%
[10]
  Activity: Active
[33]
  fractional inhibitory concentration index (FICI): 0.5
[34]
  Activity: Non-Toxic
[11]
  MIC: 8 µg/mL (≈ 6.56 µM)
[35]
  Activity: Active
[36]
  Activity: Non-Toxic
[13]
  MHC: 256 µg/mL
[14]
  inhibition (INH): 50%
[15]
  Activity: Active
[16]
  MIC: 4 µg/mL (≈ 3.28 µM)
[37]
  Activity: Active
[17]
  MIC: 4 µg/mL (≈ 3.28 µM)
[38]
  Activity: Non-Toxic
[18]
  MIC: 4 µg/mL (≈ 3.28 µM)
[19]
  fold change (FC): 2
[20]
  Activity: 40 um
[39]
  Activity: Dose-Dependent Effect
[21]
  Activity: Active
[22]
  half-life: 9.22 h

Source: ChEMBL document CHEMBL5537135, “Novel antimicrobial peptides modified with fluorinated sulfono-γ-AA having high stability and targeting multidrug-resistant bacteria infections” (Eur J Med Chem, 2024)
